Test results: paper PMC10553834, “Differentiating the roles of Mycobacterium tuberculosis substrate binding proteins, FecB and FecB2, in iron uptake” (PLOS Pathogens, 2023)
Entries after “also recorded” stand apart in the source; their conditions may differ. Where two headings read alike, the source gives them in different places.

Key:
Mtb FecB (Rv3044) = Mtb FecB (Rv3044) (Mycobacterium tuberculosis, UniProt O53291); test: biochemical; type: binding
Mtb FecB2 (Rv0265c) = Mtb FecB2 (Rv0265c) (Mycobacterium tuberculosis, UniProt L7N6B2); type: binding; conditions: FecB2-His (with His tag); 100 nM protein, 50 mM Tris-HCl pH 7.4, 150 mM NaCl, emission 335 nm
Chain of Mtb FecB2 (Rv0265c) (L7N6B2 39-330 limits assumed): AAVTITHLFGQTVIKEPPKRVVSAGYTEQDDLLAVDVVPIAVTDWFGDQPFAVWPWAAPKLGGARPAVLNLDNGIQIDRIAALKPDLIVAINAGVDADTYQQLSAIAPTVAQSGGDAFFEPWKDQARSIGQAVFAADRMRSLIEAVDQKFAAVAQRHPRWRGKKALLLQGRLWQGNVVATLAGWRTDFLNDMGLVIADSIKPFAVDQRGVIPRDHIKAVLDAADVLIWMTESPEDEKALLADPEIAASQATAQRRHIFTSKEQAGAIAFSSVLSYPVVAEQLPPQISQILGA

Chain of Mtb FecB (Rv3044) (O53291 entry or part of it): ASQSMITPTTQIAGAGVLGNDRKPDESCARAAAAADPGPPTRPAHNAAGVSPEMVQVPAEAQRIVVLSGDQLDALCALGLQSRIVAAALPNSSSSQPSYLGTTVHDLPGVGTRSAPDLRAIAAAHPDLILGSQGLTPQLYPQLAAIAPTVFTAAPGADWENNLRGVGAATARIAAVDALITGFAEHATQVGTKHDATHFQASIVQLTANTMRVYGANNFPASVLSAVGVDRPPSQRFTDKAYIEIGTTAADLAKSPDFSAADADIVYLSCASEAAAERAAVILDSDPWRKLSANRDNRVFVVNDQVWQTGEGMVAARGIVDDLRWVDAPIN

Compound	Fold weaker affinity to FecB compared to Fe-cMB (Mtb FecB (Rv3044))	Kd (Mtb FecB (Rv3044))	Kd (Mtb FecB (Rv3044); listed as Fe-mycobactin J)	Kd (Mtb FecB (Rv3044); FecB without His tag (tagless), 100 nM protein, 50 mM Tris-HCl pH 7.4, 150 mM NaCl, emission 335 nm)	Kd (Mtb FecB (Rv3044); FecB-His (with His tag, native), 100 nM protein, 50 mM Tris-HCl pH 7.4, 150 mM NaCl, emission 335 nm)	Kd (Mtb FecB2 (Rv0265c))
ferric-mycobactin J [Fe-MBJ]	~20 fold	~11000 nM	11300 ± 100 nM	–	–	–
ferric-carboxymycobactin [Fe-cMB]	–	550 nM	–	680 nM	630 ± 120 nM	could not be determined; also recorded: too weak to be determined
ferric-pyoverdines	at least 40 fold	> 45000 nM	–	–	–	–
carboxymycobactin [apo-cMB]	~4 fold	2900 ± 100 nM	–	–	–	–
O=C(N[C@H]1COC(=O)[C@@H](NC(=O)c2cccc(O)c2O)COC(=O)[C@@H](NC(=O)c2cccc(O)c2O)COC1=O)c1cccc(O)c1O [ferric-enterobactin]	at least 40 fold	26100 nM	–	–	–	–
